Assay results: patent publication US12414961B2, “Substituted nucleosides and nucleotides for treating viral infections” (priority 2013, dated 2025)

How the values were obtained:
[1] = test system: HepG2; assay: Cytotoxicity (CC50) HepG2; settings: read-out: Cytotoxicity (CC50 uM) HepG2; HepG2
[2] = test system: Huh-7; assay: Cytotoxicity (CC50) Huh-7; settings: read-out: Cytotoxicity (CC50 uM) Huh-7; Huh-7
[3] = test system: BxPC3; assay: Cytotoxicity (CC50) BxPC3; settings: read-out: Cytotoxicity (CC50 uM) BxPC3; BxPC3
[4] = test system: CEM; assay: Cytotoxicity (CC50) CEM; settings: read-out: Cytotoxicity (CC50 uM) CEM; CEM
[5] = test system: A204; assay: Cytotoxicity (CC50) A204; type: cell-based; settings: A204
[6] = test system: Huh-7 cells; assay: Cytotoxicity in Huh-7 cells of the HCV replicon assay; settings: read-out: Huh-7 cells (CC50 uM)
[7] = Cytotoxicity in Vero cells (Dengue assay); settings: African green monkey
[8] = Cytotoxicity (CC50) HepG2; settings: human, HepG2 cells
[9] = Cytotoxicity (CC50) Huh-7; settings: human, Huh-7 cells
[10] = Cytotoxicity (CC50) BxPC3; settings: human, BxPC3 cells
[11] = test system: Dengue Type 2; assay: Anti-Dengue virus cytoprotection assay, Huh-7 cells; settings: Huh-7, read-out: Dengue Type 2 Huh-7 Cells (EC50 uM)
[12] = Cytotoxicity in Huh-7 cells (Dengue assay); settings: human, Huh-7 cells
[13] = Cytotoxicity (CC50) CEM; settings: human, CEM cells
[14] = test system: Dengue Type 2; assay: Anti-Dengue virus cytoprotection assay, Vero cells; settings: read-out: Dengue Type 2 Vero Cells (EC50 uM)

## C[C@@]1(O)C(O)[C@@H](CO)O[C@H]1n1ccc(=S)[nH]c1=O (stereo partly shown)
[1]
  CC50: > 400 µM
[2]
  CC50: > 100 µM
[3]
  CC50: > 100 µM
[4]
  CC50: > 400 µM

## C[C@@]1(F)C(O)[C@@H](CO)O[C@H]1n1ccc(=S)[nH]c1=O (stereo partly shown)
[1]
  CC50: > 400 µM
[2]
  CC50: > 400 µM
[4]
  CC50: > 400 µM

## C[C@@]1(O)C(O)[C@@H](CO)O[C@H]1n1ccc(=O)[nH]c1=S (stereo partly shown)
[1]
  CC50: > 400 µM
[2]
  CC50: > 100 µM
[3]
  CC50: > 100 µM
[4]
  CC50: > 200 µM

## CC(C)OC(=O)[C@H](C)NP(=O)(OC[C@H]1O[C@@H](n2ccc(=O)[nH]c2=[Se])[C@](C)(O)C1O)Oc1ccccc1 (stereo partly shown)
[1]
  CC50: > 400 µM
[2]
  CC50: > 100 µM
[3]
  CC50: > 400 µM
[5]
  CC50: > 400 µM

## CC(C)OC(=O)[C@H](C)N[P@@](=O)(OC[C@H]1O[C@@H](n2ccc(=O)[nH]c2=S)[C@](C)(O)C1O)Oc1ccccc1 (stereo partly shown)
[1]
  CC50: > 400 µM
[2]
  CC50: > 400 µM
[4]
  CC50: > 400 µM

## CC(C)OC(=O)[C@H](C)N[P@@](=O)(OC[C@H]1O[C@@H](n2ccc(=O)[nH]c2=O)[C@](C)(F)C1O)Oc1ccccc1 (stereo partly shown)
[1]
  CC50: > 400 µM
[2]
  CC50: > 400 µM
[4]
  CC50: > 400 µM

## CC(C)OC(=O)[C@H](C)NP(=O)(OC[C@H]1O[C@@H](n2ccc(=S)[nH]c2=O)[C@@H](O)C1O)Oc1ccccc1 (stereo partly shown)
[1]
  CC50: > 400 µM

## C[C@H](NP(=O)(O)OC[C@H]1O[C@@H](n2ccc(=O)[nH]c2=S)[C@](C)(O)C1O)C(=O)O (stereo partly shown)
[6]
  CC50: > 100 µM
[1]
  CC50: > 400 µM
[2]
  CC50: > 400 µM
[4]
  CC50: > 400 µM

## C[C@@]1(O)C(O)[C@@H](COP(=O)(O)O)O[C@H]1n1ccc(=O)[nH]c1=S (stereo partly shown)
[6]
  CC50: > 100 µM
[1]
  CC50: > 400 µM
[2]
  CC50: > 400 µM
[4]
  CC50: > 400 µM

## CC(C)OC(=O)[C@H](C)NP(=O)(OC[C@@]1(N=[N+]=[N-])O[C@@H](n2ccc(=S)[nH]c2=O)[C@@H](O)C1O)Oc1ccccc1 (stereo partly shown)
[6]
  CC50: > 100 µM
[1]
  CC50: > 400 µM
[2]
  CC50: > 400 µM
[4]
  CC50: 229 µM

## CC1(O)[C@@H](O)[C@@H](CO)O[C@H]1n1ccc(=O)[nH]c1=S (stereo partly shown)
[7]
  CC50: > 100 µM
[8]
  CC50: > 400 µM
[9]
  CC50: > 100 µM
[10]
  CC50: > 100 µM
[11]
  EC50: > 100 µM
[12]
  CC50: > 100 µM
[13]
  CC50: > 200 µM

## CC(C)OC(=O)[C@H](C)N[P@@](=O)(OC[C@H]1O[C@@H](n2ccc(=O)[nH]c2=S)C(C)(O)[C@H]1O)Oc1ccccc1 (stereo partly shown)
[7]
  CC50: > 100 µM
[8]
  CC50: > 400 µM
[9]
  CC50: > 400 µM
[11]
  EC50: 24.9 µM
[12]
  CC50: > 100 µM
[14]
  EC50: 56.2 µM
[13]
  CC50: > 400 µM

## C#C[C@]1(COP(=O)(N[C@@H](C)C(=O)OC(C)C)Oc2ccccc2)O[C@@H](n2ccc(=O)[nH]c2=S)C(O)[C@H]1O (stereo partly shown)
[8]
  CC50: > 400 µM
[9]
  CC50: > 400 µM
[11]
  EC50: > 100 µM
[12]
  CC50: > 100 µM
[13]
  CC50: > 400 µM

## CC(C)OC(=O)[C@H](C)NP(=O)(OC[C@H]1O[C@@H](n2ccc(=O)[nH]c2=S)C(C)[C@H]1O)Oc1ccccc1 (stereo partly shown)
[8]
  CC50: > 400 µM
[9]
  CC50: > 400 µM
[11]
  EC50: 6.07 µM
[12]
  CC50: > 100 µM
[13]
  CC50: 259 µM
